Test results published in publication doi:10.1101/2022.07.21.500659v1 (bioRxiv, 2022).

How the values were obtained:
Assay type in all cases: in vivo, mouse
[1] = tested on: OVX BALB/c mice; assay: Bone strength, 3-point bending of femur in OVX mice; conditions: 8 weeks of treatment
[2] = tested on: OVX BALB/c mice; assay: Circulating PTH, CTX-I and P1NP in OVX mice; conditions: plasma at necropsy, vs OVX+vehicle
[3] = tested on: OVX BALB/c mice; assay: Dynamic bone histomorphometry of tibia in OVX mice; conditions: calcein labelling
[4] = tested on: OVX BALB/c mice; assay: High resolution X-ray microCT of tibia in OVX mice; conditions: 8 weeks, vs OVX+vehicle
[5] = tested on: OVX BALB/c mice; conditions: femur midshaft cortical cross-section, FTIRI, vs vehicle-treated OVX mice

## O=P(O)(O)C(O)(Cn1ccnc1)P(=O)(O)O [zoledronic acid]
[1]
  Reduced deformation in load-deformation curves of OVX mice: not ameliorated
[2]
  Change of circulating levels of P1NP: −25%
  Reduction of circulating levels of CTX-I: 24%
[3]
  Active mineralizing surface: reduction
  Bone formation rate: reduction
[4]; midshaft tibia
  Increase of cortical thickness: 6%
[4]; proximal tibia
  Increase of trabeculae numbers: 106%
  Increase of trabecular bone mass: 85%
[5]
  Enhancement of collagen maturity: None of these effects were observed
  Reduction of the degree of mineralization of the bone ECM: None of these effects were observed
